Assay results reported in ChEMBL document CHEMBL1914348, “Discovery of pyrazoles as novel FPR1 antagonists” (Bioorg Med Chem Lett, 2011).
One block for each compound: values may come before it. Activity calls are given as the source filed them. The rule behind the calls is not given here.

Experiments:
fMet-Leu-Phe receptor [1] = target: T1, fMet-Leu-Phe receptor (Homo sapiens, UniProt P21462); assay: Antagonist activity at human FPR1 in human neutrophils assessed as inhibition of fMLF-stimulated intracellular calcium mobilisation by FLIPR assay; format: functional, cell-based
T1 sequence (P21462 whole entry): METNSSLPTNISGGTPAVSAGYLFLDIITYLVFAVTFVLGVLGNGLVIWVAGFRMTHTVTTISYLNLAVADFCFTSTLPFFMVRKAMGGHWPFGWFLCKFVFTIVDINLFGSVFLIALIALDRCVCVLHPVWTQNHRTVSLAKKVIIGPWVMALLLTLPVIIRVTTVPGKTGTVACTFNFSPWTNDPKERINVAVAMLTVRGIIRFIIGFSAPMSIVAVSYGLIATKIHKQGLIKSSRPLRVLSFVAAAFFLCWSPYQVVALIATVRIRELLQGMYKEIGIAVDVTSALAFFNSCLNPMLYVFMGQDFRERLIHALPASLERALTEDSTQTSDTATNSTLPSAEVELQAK

[2] = target: T2, fMet-Leu-Phe receptor (Homo sapiens) (UniProt P21462); assay: Antagonist activity at human FPR1 in human neutrophils assessed as inhibition of fMLF-stimulated intracellular calcium mobilisation at 50 uM by FLIPR assay; format: functional, cell-based
T2 sequence (whole entry): T1 sequence (P21462 whole entry)

[3] = target: T3, fMet-Leu-Phe receptor (Mus musculus) (UniProt P33766); assay: Inhibition of mouse FPR1
T3 sequence (whole entry): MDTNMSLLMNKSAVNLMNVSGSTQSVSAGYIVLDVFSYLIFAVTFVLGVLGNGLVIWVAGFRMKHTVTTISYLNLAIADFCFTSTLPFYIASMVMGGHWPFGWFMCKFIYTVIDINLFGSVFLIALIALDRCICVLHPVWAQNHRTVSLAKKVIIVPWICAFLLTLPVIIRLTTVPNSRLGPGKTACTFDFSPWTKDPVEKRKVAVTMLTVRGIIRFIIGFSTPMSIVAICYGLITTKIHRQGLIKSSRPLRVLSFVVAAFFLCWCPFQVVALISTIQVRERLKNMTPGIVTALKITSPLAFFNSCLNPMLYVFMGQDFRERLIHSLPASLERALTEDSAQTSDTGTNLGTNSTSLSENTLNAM

Cytochrome P450 2C9 = Cytochrome P450 2C9 (Homo sapiens, UniProt P11712); assay: Inhibition of CYP2C9; format: ADME
Chain of Cytochrome P450 2C9 (P11712 whole entry): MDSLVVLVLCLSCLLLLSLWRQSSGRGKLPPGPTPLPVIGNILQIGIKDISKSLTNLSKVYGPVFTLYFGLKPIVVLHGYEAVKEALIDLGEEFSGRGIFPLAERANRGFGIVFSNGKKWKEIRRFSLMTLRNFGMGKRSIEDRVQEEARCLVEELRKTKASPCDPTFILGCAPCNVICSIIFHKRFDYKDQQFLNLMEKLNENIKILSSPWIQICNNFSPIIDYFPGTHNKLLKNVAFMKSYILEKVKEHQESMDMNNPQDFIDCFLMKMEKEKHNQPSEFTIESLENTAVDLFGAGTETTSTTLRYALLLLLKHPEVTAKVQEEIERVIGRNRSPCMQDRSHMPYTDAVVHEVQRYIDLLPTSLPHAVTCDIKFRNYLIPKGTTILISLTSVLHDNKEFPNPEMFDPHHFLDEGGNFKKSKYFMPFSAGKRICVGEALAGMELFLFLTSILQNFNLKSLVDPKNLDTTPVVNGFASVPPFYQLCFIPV

Cytochrome P450 2D6 = Cytochrome P450 2D6 (Homo sapiens, UniProt P10635); assay: Inhibition of CYP2D6; format: ADME
Chain of Cytochrome P450 2D6 (P10635 whole entry): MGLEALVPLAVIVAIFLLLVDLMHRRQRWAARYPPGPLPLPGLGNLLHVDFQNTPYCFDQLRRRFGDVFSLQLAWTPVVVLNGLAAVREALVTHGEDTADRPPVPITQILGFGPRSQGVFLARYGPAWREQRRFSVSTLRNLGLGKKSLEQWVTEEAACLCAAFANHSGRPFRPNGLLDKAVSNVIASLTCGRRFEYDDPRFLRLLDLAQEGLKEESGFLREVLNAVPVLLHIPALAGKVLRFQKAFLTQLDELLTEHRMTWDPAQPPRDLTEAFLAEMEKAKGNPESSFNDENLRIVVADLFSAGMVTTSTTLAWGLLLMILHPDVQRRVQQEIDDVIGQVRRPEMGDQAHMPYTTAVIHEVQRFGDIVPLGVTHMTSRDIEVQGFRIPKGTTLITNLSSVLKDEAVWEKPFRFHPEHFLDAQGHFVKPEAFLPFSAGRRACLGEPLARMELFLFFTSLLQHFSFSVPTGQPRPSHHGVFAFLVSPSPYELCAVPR

fMet-Leu-Phe receptor [4] = target: T1, fMet-Leu-Phe receptor; assay: Antagonist activity at FPR1 in whole blood assessed as CD11 level; format: functional, tissue-based; details: read-out: pA2 (converted)
[5] = Chemical stability of the compound assessed as half life; format: physicochemical
[6] = Intrinsic clearance in human hepatocytes assessed per 10 '6 cells; format: ADME, cell-based, Liver, Hepatocyte
[7] = Fraction unbound in human; format: ADME, organism-based; details: in vivo
Cytochrome P450 3A4 = Cytochrome P450 3A4 (Homo sapiens, UniProt P08684); assay: Inhibition of CYP3A4; format: ADME
Chain of Cytochrome P450 3A4 (P08684 whole entry): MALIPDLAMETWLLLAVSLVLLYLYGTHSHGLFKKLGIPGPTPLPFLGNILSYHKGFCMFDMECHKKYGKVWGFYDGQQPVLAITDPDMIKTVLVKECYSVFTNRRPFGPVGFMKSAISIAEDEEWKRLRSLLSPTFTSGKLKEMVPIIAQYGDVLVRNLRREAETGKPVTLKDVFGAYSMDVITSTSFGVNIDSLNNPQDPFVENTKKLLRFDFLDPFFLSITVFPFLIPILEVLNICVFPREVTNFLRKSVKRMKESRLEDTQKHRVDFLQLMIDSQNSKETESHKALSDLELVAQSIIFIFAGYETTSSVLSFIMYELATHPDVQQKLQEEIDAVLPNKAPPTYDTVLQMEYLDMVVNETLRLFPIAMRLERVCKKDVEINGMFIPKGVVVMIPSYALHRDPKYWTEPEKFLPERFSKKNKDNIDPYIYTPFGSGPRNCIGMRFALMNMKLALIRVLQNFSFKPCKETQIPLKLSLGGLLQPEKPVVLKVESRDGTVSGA

Rattus norvegicus = species on record: Rattus norvegicus; assay: Inhibition of rat FPR1
Cavia porcellus = species on record: Cavia porcellus; assay: Inhibition of guinea pig FPR1
[8] = Lipophilicity, log D of the compound; format: physicochemical; details: octanol/water
[9] = Intrinsic clearance in Sprague-Dawley rat hepatocytes assessed per 10 '6 cells; format: ADME, cell-based, Liver, Hepatocyte
[10] = Solubility of the compound; format: physicochemical
Cytochrome P450 2C19 = Cytochrome P450 2C19 (Homo sapiens, UniProt P33261); assay: Inhibition of CYP2C19; format: ADME
Chain of Cytochrome P450 2C19 (P33261 whole entry): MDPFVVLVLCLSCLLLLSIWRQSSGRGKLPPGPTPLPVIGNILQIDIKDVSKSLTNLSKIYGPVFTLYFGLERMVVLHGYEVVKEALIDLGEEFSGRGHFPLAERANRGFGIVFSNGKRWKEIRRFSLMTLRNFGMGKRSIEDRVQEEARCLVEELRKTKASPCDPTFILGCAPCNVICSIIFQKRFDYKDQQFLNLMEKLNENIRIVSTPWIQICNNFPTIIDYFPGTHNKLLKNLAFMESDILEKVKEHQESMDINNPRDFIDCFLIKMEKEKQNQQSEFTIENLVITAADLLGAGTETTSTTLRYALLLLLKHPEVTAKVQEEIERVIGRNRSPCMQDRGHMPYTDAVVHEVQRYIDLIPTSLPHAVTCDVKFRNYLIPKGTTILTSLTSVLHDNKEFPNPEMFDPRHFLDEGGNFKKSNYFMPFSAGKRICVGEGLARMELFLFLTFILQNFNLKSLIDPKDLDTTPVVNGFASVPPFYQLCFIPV

[11] = Fraction unbound in rat; format: ADME, organism-based; details: in vivo
Cytochrome P450 1A2 = target: T4, Cytochrome P450 1A2 (Homo sapiens, UniProt P05177); assay: Inhibition of CYP1A2; format: ADME
T4 sequence (P05177 whole entry): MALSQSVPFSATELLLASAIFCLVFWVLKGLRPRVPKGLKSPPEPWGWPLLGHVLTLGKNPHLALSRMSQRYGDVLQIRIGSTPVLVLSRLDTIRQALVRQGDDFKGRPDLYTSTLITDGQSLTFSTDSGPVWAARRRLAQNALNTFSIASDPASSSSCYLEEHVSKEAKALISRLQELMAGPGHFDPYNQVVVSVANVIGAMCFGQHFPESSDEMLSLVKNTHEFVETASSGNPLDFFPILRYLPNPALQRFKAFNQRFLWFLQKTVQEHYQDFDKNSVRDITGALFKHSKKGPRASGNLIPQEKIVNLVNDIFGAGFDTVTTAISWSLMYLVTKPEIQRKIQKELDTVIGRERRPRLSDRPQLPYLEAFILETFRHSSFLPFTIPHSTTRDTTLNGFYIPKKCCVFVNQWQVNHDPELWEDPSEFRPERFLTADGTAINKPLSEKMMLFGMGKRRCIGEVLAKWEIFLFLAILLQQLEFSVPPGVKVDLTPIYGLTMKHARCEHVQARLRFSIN

[12] = Intrinsic clearance in Sprague-Dawley rat microsomes; format: ADME, Microsome
[13] = Intrinsic clearance in human microsomes; format: ADME, Microsome

- IC50 (fMet-Leu-Phe receptor [1]): 6.31 µM
Compound: CCC(CC)NC(=O)c1cnn(-c2ccccc2)c1NS(=O)(=O)c1ccccc1C

- IC50 (fMet-Leu-Phe receptor [1]): 20 µM
Compound: CCC(CC)NC(=O)c1cnn(-c2ccccn2)c1NS(=O)(=O)c1ccc(C)cc1

- IC50 (fMet-Leu-Phe receptor [1]): 0.501 µM
Compound: Cc1ccc(S(=O)(=O)Nc2c(C(=O)N[C@H](C)C(C)(C)C)c(C)nn2-c2ccccc2)cc1

- IC50 (fMet-Leu-Phe receptor [1]): 5.01 µM
Compound: CCC(CC)NC(=O)c1cnn(-c2ccccc2)c1NS(=O)(=O)C1CCCC1

- inhibition [2]: < 25%
Compound: Cc1ccc(S(=O)(=O)Nc2c(C(=O)NC3CCN(C)CC3)cnn2-c2ccccc2)cc1

- IC50 (fMet-Leu-Phe receptor [1]): 10 µM
Compound: Cc1ccc(S(=O)(=O)Nc2c(C(=O)NC3CCOCC3)cnn2-c2ccccc2)cc1

- IC50 (fMet-Leu-Phe receptor [1]): 3.16 µM
Compound: Cc1ccc(S(=O)(=O)Nc2c(C(=O)N(C)C3CCCCC3)c(C)nn2-c2ccccc2)cc1

- inhibition [3]: inactive
- IC50 (Cytochrome P450 2C9): > 10 µM
- IC50 (Cytochrome P450 2D6): > 10 µM
- Kb (fMet-Leu-Phe receptor [4]): 0.126 µM
- half-life [5]: > 41.7 days
- hepatocyte CLint [6]: < 3 µL/min/1e6 cells
- fraction unbound [7]: 0.06
- IC50 (Cytochrome P450 3A4): > 10 µM
- inhibition (Rattus norvegicus): inactive
- inhibition (Cavia porcellus): inactive
- logD [8]: 0.5
- hepatocyte CLint [9]: 4 µL/min/1e6 cells
- solubility [10]: > 1000 µM
- IC50 (Cytochrome P450 2C19): > 10 µM
- fraction unbound [11]: 0.1
- IC50 (Cytochrome P450 1A2): > 10 µM
- IC50 (fMet-Leu-Phe receptor [1]): 0.0251 µM
- microsomal CLint [12]: 13 µL/min/mg
- microsomal CLint [13]: 5 µL/min/mg
Compound: Cc1nn(-c2ccc(F)cc2)c(NS(=O)(=O)c2ccc(C#N)cc2)c1C(=O)N[C@@H](C)C(C)(C)C

- inhibition [3]: inactive
- IC50 (Cytochrome P450 2C9): > 10 µM
- IC50 (Cytochrome P450 2D6): > 10 µM
- Kb (fMet-Leu-Phe receptor [4]): 0.398 µM
- half-life [5]: > 41.7 days
- hepatocyte CLint [6]: 7 µL/min/1e6 cells
- fraction unbound [7]: 0.011
- IC50 (Cytochrome P450 3A4): > 10 µM
- inhibition (Rattus norvegicus): inactive
- inhibition (Cavia porcellus): inactive
- logD [8]: 1.4
- hepatocyte CLint [9]: 12 µL/min/1e6 cells
- solubility [10]: > 1000 µM
- IC50 (Cytochrome P450 2C19): > 10 µM
- fraction unbound [11]: 0.042
- IC50 (Cytochrome P450 1A2): > 10 µM
- IC50 (fMet-Leu-Phe receptor [1]): 0.0794 µM
- microsomal CLint [12]: 53 µL/min/mg
- microsomal CLint [13]: 40 µL/min/mg
Compound: Cc1ccc(S(=O)(=O)Nc2c(C(=O)N[C@@H](C)C(C)(C)C)c(C)nn2-c2ccccc2)cc1

- IC50 (fMet-Leu-Phe receptor [1]): 0.126 µM
Compound: Cc1ccc(S(=O)(=O)Nc2c(C(=O)NC(C)C(C)(C)C)c(C)nn2-c2ccccc2)cc1 (configuration not stated)

- IC50 (fMet-Leu-Phe receptor [1]): 2 µM
Compound: CCC(CC)NC(=O)c1cnn(-c2ccccc2)c1NS(=O)(=O)c1ccc(C)cc1

- IC50 (fMet-Leu-Phe receptor [1]): 10 µM
Compound: CCC(CC)NC(=O)c1cnn(C(C)C)c1NS(=O)(=O)c1ccc(C)cc1

- IC50 (fMet-Leu-Phe receptor [1]): 0.794 µM
Compound: Cc1ccc(S(=O)(=O)Nc2c(C(=O)NCc3ccc(C)cc3C)cnn2-c2ccccc2)cc1

- inhibition [2]: < 25%
Compound: Cc1nn(-c2ccccc2)c(NS(=O)(=O)c2cccc(CN3CCOCC3)c2)c1C(=O)N[C@@H](C)C(C)(C)C

- IC50 (fMet-Leu-Phe receptor [1]): 0.316 µM
Compound: CCCC(CC)NC(=O)c1cnn(-c2ccccc2)c1NS(=O)(=O)c1ccc(C)cc1 (configuration not stated)

- IC50 (fMet-Leu-Phe receptor [1]): 0.501 µM
Compound: CCC(CC)NC(=O)c1c(C)nn(-c2ccccc2)c1NS(=O)(=O)c1ccc(C)cc1

- IC50 (fMet-Leu-Phe receptor [1]): 5.01 µM
Compound: Cc1ccc(S(=O)(=O)Nc2c(C(=O)NC3CCOCC3)c(C)nn2-c2ccccc2)cc1

- IC50 (fMet-Leu-Phe receptor [1]): 0.0126 µM
Compound: Cc1nn(-c2ccc(F)cc2)c(NS(=O)(=O)c2ccc(C(F)(F)F)cc2)c1C(=O)N[C@@H](C)C(C)(C)C

- IC50 (fMet-Leu-Phe receptor [1]): 5.01 µM
Compound: CCC(CC)NC(=O)c1cnn(-c2ccccc2)c1NS(=O)(=O)c1ccccc1

- IC50 (fMet-Leu-Phe receptor [1]): 0.0794 µM
Compound: CCN(C(=O)c1cnn(-c2ccccc2)c1NS(=O)(=O)c1ccc(-c2cnco2)cc1)C1CCCCC1

- IC50 (fMet-Leu-Phe receptor [1]): 1 µM
Compound: Cc1nn(-c2ccccc2)c(NS(=O)(=O)C2CCCCC2)c1C(=O)N[C@@H](C)C(C)(C)C
